This test has as its system Primary Epidermal Keratinocytes (PEK), Normal, Human, Adult. The test can be described thus: In vitro Scratch Assay of keratinocytes (with and without mitomycin c). The test is classed as cell-based. Particulars: media/control group, no hydrogel. The text has this:
1. Maintain stock cultures of Primary Epidermal Keratinocytes (PEK), Normal, Human, Adult cells in Dermal Cell Basal Medium supplemented with Keratinocyte Growth Kit and Gentamicin-Amphotericin B Solution (Complete Medium). Subculture the stock cultures of cells to 2.5×10^4 cells/ml (estimate) and re-feed with complete medium every 2 days or when a density of near confluence is reached. 2. To each well of a 24 well plate add appropriate test substances. Row A, Columns 1-3: blank, no cells, medium only. Row B, Columns 1-3: baseline, cells only, no coating. Row C-D, Columns 1-3 and Rows A-D, Columns 4-6: test substances at determined previously, in a serial dilution series as necessary. 3. Harvest cells and wash the PEK cells in Media by centrifugation at 150×g for 3 to5 minutes. 4. Determine cell number and viability (by trypan blue exclusion), and suspend the cells to a final concentration of 5×10^4 cells/ml in Media. 5. Dispense 600 μl of the cell suspension (30,000 cells) into all wells of the plate prepared in Step 2. 6. […]
In vitro Scratch Assay was performed according to the above protocol. […] In vitro re-epithelialization was documented by photography, and the amount of migration was manually quantified by computer-assisted image analysis. The data was expressed as a percentage of the area of the scratch filled by keratinocytes (FIG. 7). […]

On to `CO[C@@]12[C@H](COC(N)=O)C3=C(C(=O)C(C)=C(N)C3=O)N1C[C@@H]1N[C@@H]12` [MMC, mitomycin c], for which the “healing of the scratch, MMC+ cells compared to MMC− cells” value is listed as “delayed healing”.
